Experiment: Food-effect crossover study, adverse events after single 20 mg amifampridine phosphate in healthy subjects (Examples 10, 11)
Type: in vivo
Procedure: This was a randomized, open-label, 2-treatment, 2-period crossover study with 44 completed subjects to assess the safety, tolerability, and the effect of food on the relative bioavailability of a single dose of amifampridine phosphate.
Safety was evaluated for all subjects who take at least one dose of 3,4-DAP. Safety was evaluated by recording the incidence of adverse events (AEs), physical examination, vital signs, concomitant medications, clinical laboratory assessments, and 12-lead electrocardiogram (ECG).
Analysis for the following safety parameters was carried out on the Safety Population: AEs which included all AEs, AEs by severity, drug-related AEs, deaths, SAEs, AEs leading to study discontinuation, and most frequent AEs, standard clinical laboratory tests, vital signs, ECG measurements, routine physical examinations, and prior and concomitant medications. The cut-off for frequency of AEs reported was determined based on the data. No formal statistical testing was performed for the safety analyses; only descriptive statistics were provided. Appropriate descriptive statistics for the safety data were determined using SAS Version 9.2.
AEs were coded according to the Medical Dictionary for Regulatory Activities (MedDRA; Version 13.0). […] The occurrence of AEs was assessed continuously from the time the subject signed the VID and consent. The reporting period for non-serious AEs was from the first dose to the final study visit. The investigator determined the severity of each event and the relationship of an AE to the IP and recorded it on the source documents and AE CRF. The nature, time of onset, duration, severity, and relationship to study drug was documented, including documentation of investigator assessment and review. All events were assessed to determine if the AE was serious.
The Investigator determined the severity of each event and the event was recorded on the source documents and AE CRF. A coding of “mild” meant there was no limitation of usual activities, “moderate” meant there was some limitation of usual activities, “severe” meant there was an inability to carry out usual activities.
The reporting period for AEs that met the criteria of an SAE began from the time of signing the VID and consent form through follow-up or early termination. […] Clinical Laboratory Assessments

Nc1ccncc1N.O=P(O)(O)O [amifampridine phosphate, 3,4-diaminopyridine phosphate]
General Disorders and Administration Site Conditions Total, drug-related AE: events (Female N=16): 2
General Disorders and Administration Site Conditions Total, drug-related AE: subjects (Female N=16): 2
Headache, drug-related AE: % of subjects (Female N=16): 19%
Headache, drug-related AE: events (Female N=16): 3
Headache, drug-related AE: subjects (Female N=16): 3
Hypoaesthesia Facial, drug-related AE: % of subjects (Female N=16): (0%) [0]
Hypoaesthesia Facial, drug-related AE: events (Female N=16): (0%) [0]
Hypoaesthesia Facial, drug-related AE: subjects (Female N=16): 0
Hypoaesthesia Oral, drug-related AE: % of subjects (Female N=16): 6%
Hypoaesthesia Oral, drug-related AE: events (Female N=16): 1
Hypoaesthesia Oral, drug-related AE: subjects (Female N=16): 1
Hypoaesthesia, drug-related AE: % of subjects (Female N=16): 6%
Hypoaesthesia, drug-related AE: events (Female N=16): 1
Hypoaesthesia, drug-related AE: subjects (Female N=16): 1
Nausea, drug-related AE: % of subjects (Female N=16): 13%
Nausea, drug-related AE: events (Female N=16): 2
Nausea, drug-related AE: subjects (Female N=16): 2
Nervous System Disorders Total, drug-related AE: % of subjects (Female N=16): 63%
Nervous System Disorders Total, drug-related AE: events (Female N=16): 31
Nervous System Disorders Total, drug-related AE: subjects (Female N=16): 10
Paraesthesia Oral, drug-related AE: % of subjects (Female N=16): 44%
Paraesthesia Oral, drug-related AE: events (Female N=16): 12
Paraesthesia Oral, drug-related AE: subjects (Female N=16): 7
Paraesthesia, drug-related AE: % of subjects (Female N=16): 38%
Paraesthesia, drug-related AE: events (Female N=16): 9
Paraesthesia, drug-related AE: subjects (Female N=16): 6
Possibly or probably related AEs, Mild: % of subjects (Female N=16): 75%
Possibly or probably related AEs, Mild: events (Female N=16): 41
Possibly or probably related AEs, Mild: subjects (Female N=16): 12
Possibly or probably related AEs, Moderate: % of subjects (Female N=16): 6%
Possibly or probably related AEs, Moderate: events (Female N=16): 1
Possibly or probably related AEs, Moderate: subjects (Female N=16): 1
Possibly or probably related AEs, Severe: % of subjects (Female N=16): (0%) [0]
Possibly or probably related AEs, Severe: events (Female N=16): (0%) [0]
Possibly or probably related AEs, Severe: subjects (Female N=16): 0
Possibly or probably related AEs, Total: % of subjects (Female N=16): 75%
Possibly or probably related AEs, Total: events (Female N=16): 42
Possibly or probably related AEs, Total: subjects (Female N=16): 12
Serious adverse events: % of subjects (Female N=16): (0%) [0]
Serious adverse events: events (Female N=16): (0%) [0]
Serious adverse events: subjects (Female N=16): 0
Skin and Subcutaneous Tissue Disorders Total, drug-related AE: % of subjects (Female N=16): (0%) [0]
Skin and Subcutaneous Tissue Disorders Total, drug-related AE: events (Female N=16): (0%) [0]
Skin and Subcutaneous Tissue Disorders Total, drug-related AE: subjects (Female N=16): 0
Vascular Disorders Total, drug-related AE: % of subjects (Female N=16): 6%
Vascular Disorders Total, drug-related AE: events (Female N=16): 1
Vascular Disorders Total, drug-related AE: subjects (Female N=16): 1
Abdominal Pain Upper, drug-related AE: % of subjects (Male N=31): 3%
Abdominal Pain Upper, drug-related AE: events (Male N=31): 1
Abdominal Pain Upper, drug-related AE: subjects (Male N=31): 1
Abdominal Pain, drug-related AE: % of subjects (Male N=31): 3%
Abdominal Pain, drug-related AE: events (Male N=31): 1
Abdominal Pain, drug-related AE: subjects (Male N=31): 1
Abdominal Tenderness, drug-related AE: % of subjects (Male N=31): (0%) [0]
Abdominal Tenderness, drug-related AE: events (Male N=31): (0%) [0]
Abdominal Tenderness, drug-related AE: subjects (Male N=31): 0
Acne, drug-related AE: % of subjects (Male N=31): 3%
Acne, drug-related AE: events (Male N=31): 1
Acne, drug-related AE: subjects (Male N=31): 1
All treatment emergent AEs, Mild: % of subjects (Male N=31): 58%
All treatment emergent AEs, Mild: events (Male N=31): 57
All treatment emergent AEs, Mild: subjects (Male N=31): 18
All treatment emergent AEs, Moderate: % of subjects (Male N=31): (0%) [0]
All treatment emergent AEs, Moderate: events (Male N=31): (0%) [0]
All treatment emergent AEs, Moderate: subjects (Male N=31): 0
All treatment emergent AEs, Severe: % of subjects (Male N=31): 3%
All treatment emergent AEs, Severe: events (Male N=31): 1
All treatment emergent AEs, Severe: subjects (Male N=31): 1
All treatment emergent AEs, Total: events (Male N=31): 58
All treatment emergent AEs, Total: subjects (Male N=31): 19
Constipation, drug-related AE: % of subjects (Male N=31): (0%) [0]
Constipation, drug-related AE: events (Male N=31): (0%) [0]
Constipation, drug-related AE: subjects (Male N=31): 0
Diarrhoea, drug-related AE: % of subjects (Male N=31): (0%) [0]
Diarrhoea, drug-related AE: events (Male N=31): (0%) [0]
Diarrhoea, drug-related AE: subjects (Male N=31): 0
Discontinued due to adverse events: % of subjects (Male N=31): 3%
Discontinued due to adverse events: events (Male N=31): 1
Discontinued due to adverse events: subjects (Male N=31): 1
Dizziness, drug-related AE: % of subjects (Male N=31): 3%
Dizziness, drug-related AE: events (Male N=31): 2
Dizziness, drug-related AE: subjects (Male N=31): 1
Dysgeusia, drug-related AE: % of subjects (Male N=31): 6%
Dysgeusia, drug-related AE: events (Male N=31): 3
Dysgeusia, drug-related AE: subjects (Male N=31): 2
Fatigue, drug-related AE: % of subjects (Male N=31): 6%
Fatigue, drug-related AE: events (Male N=31): 2
Fatigue, drug-related AE: subjects (Male N=31): 2
Feeling Hot, drug-related AE: % of subjects (Male N=31): 3%
Feeling Hot, drug-related AE: events (Male N=31): 1
Feeling Hot, drug-related AE: subjects (Male N=31): 1
Flushing, drug-related AE: % of subjects (Male N=31): (0%) [0]
Flushing, drug-related AE: events (Male N=31): (0%) [0]
Flushing, drug-related AE: subjects (Male N=31): 0
Gastrointestinal Disorders Total, drug-related AE: % of subjects (Male N=31): 13%
Gastrointestinal Disorders Total, drug-related AE: events (Male N=31): 4
Gastrointestinal Disorders Total, drug-related AE: subjects (Male N=31): 4
General Disorders and Administration Site Conditions Total, drug-related AE: % of subjects (Male N=31): 10%
General Disorders and Administration Site Conditions Total, drug-related AE: events (Male N=31): 3
General Disorders and Administration Site Conditions Total, drug-related AE: subjects (Male N=31): 3
Headache, drug-related AE: % of subjects (Male N=31): 6%
Headache, drug-related AE: events (Male N=31): 2
Headache, drug-related AE: subjects (Male N=31): 2
Hypoaesthesia Facial, drug-related AE: % of subjects (Male N=31): 3%
Hypoaesthesia Facial, drug-related AE: events (Male N=31): 1
Hypoaesthesia Facial, drug-related AE: subjects (Male N=31): 1
Hypoaesthesia Oral, drug-related AE: % of subjects (Male N=31): 13%
Hypoaesthesia Oral, drug-related AE: events (Male N=31): 5
Hypoaesthesia Oral, drug-related AE: subjects (Male N=31): 4
Hypoaesthesia, drug-related AE: % of subjects (Male N=31): 3%
Hypoaesthesia, drug-related AE: events (Male N=31): 1
Hypoaesthesia, drug-related AE: subjects (Male N=31): 1
Nausea, drug-related AE: % of subjects (Male N=31): 6%
Nausea, drug-related AE: events (Male N=31): 2
Nausea, drug-related AE: subjects (Male N=31): 2
Nervous System Disorders Total, drug-related AE: % of subjects (Male N=31): 55%
Nervous System Disorders Total, drug-related AE: events (Male N=31): 43
Nervous System Disorders Total, drug-related AE: subjects (Male N=31): 17
Paraesthesia Oral, drug-related AE: % of subjects (Male N=31): 42%
Paraesthesia Oral, drug-related AE: events (Male N=31): 18
Paraesthesia Oral, drug-related AE: subjects (Male N=31): 13
Paraesthesia, drug-related AE: % of subjects (Male N=31): 19%
Paraesthesia, drug-related AE: events (Male N=31): 11
